Where “and” joins values, the source holds several entries; their conditions need not be identical. Equal values may be shown once. Marks after values point to notes of the source that are not given here.
Test system: Bovine Respiratory Disease (BRD)
Assay: Health outcomes (pulls, morbidity, BRD, removal, mortality) after castration or processing (Example 4)
Format: in vivo, cross-bred beef calves
Conditions: for Study removal: 28 days; for First BRD relapse rate / First re-pull rate / BRD morbidity / Overall morbidity: estimated probability adjusted for pen; for Pulls (pen-adjusted first pull rate): estimated probability
Protocol: This study was designed as a stratified 2-arm parallel trial. […] Calves were maintained on open pens that consisted of a combination of concrete aprons and dirt pens. […] Upon arrival, calves were unloaded and sorted (d 0).
Processing and surgical castration was performed by the same operator to minimize variation in procedure. […] Briefly, the scrotum of each calf was cleaned with dilute chlorohexidine disinfectant and incised longitudinally with a Newberry knife (Jorgensen Lab, Loveland, Colo.). The testes and spermatic cords were exteriorized by blunt dissection and the cremaster was broken using manual traction. The spermatic cords were cut using a White's Double Crush emasculator (Jorgensen Lab, Loveland, Colo.) applied for approximately 30 seconds. Steers were subjected to the same handling procedures apart from knife cutting and castration.
Kansas State University Beef Stocker Unit personnel conducted twice daily evaluations of the cattle and were masked to drug treatment assignment throughout the study. Animals were deemed “sick” based on subjective criteria including general appearance and attitude, gauntness, and reluctance to move. If a sick calf was identified it was removed from the pen, brought to the processing unit, and its rectal temperature was obtained.
Animals not treated for BRD on initial evaluation that continued to display clear visual signs of BRD for 2 consecutive days were treated with an antimicrobial regardless of temperature. […] After treatments, cattle were returned to their home pens.
In addition to BRD, other health outcomes that were considered included lameness, scrotal infection, and coccidiosis. A diagnosis of lameness was based on signs of limping and reduced weight bearing on one or more limbs during standing and walking. A diagnosis of scrotal infection was based on signs of anorexia, fever, and the presence of swelling and purulent discharge from the castration site. A diagnosis of coccidiosis was based on signs of diarrhea, anorexia, and depression and the presence of coccidia oocysts on microscopic examination of the feces.
The removal of an animal from the study was permitted only for significant illness or injury that compromised the welfare of the animal. All calves that became severely injured or moribund were humanely euthanized. Animals that died or were euthanized during the study were transferred to the KSU Veterinary Diagnostic Laboratory for necropsy and disposal.
A generalized linear mixed model was fit to number of health events in a given pen using a binomial distribution whereby pen size defined the number of trials. Health outcomes included Pull, Morbidity and BRD. […] The random effect of Lot was also fit in the linear predictor as a blocking factor to account for variability in health events between lots. Model parameters were estimated using Laplace integral approximation to maximum likelihood. Inference was conducted after checking for absence of overdispersion based on the Pearson chi-square/df fit statistic.
The endpoint of interest was survival time, which was defined as the time to first pull, first treatment, first treatment for BRD, or the end of the study in days. In the data set, the variable Group represented the treatment category (MEL or CONT), the variable Time represented the disease-free survival time, and the a variable Status was used as a censoring indicator, with the value 1 indicating an event time and the value 0 indicating a censored time.

[1] = bulls castrated 24 h after 1 mg/kg PO

With `Cc1cnc(NC(=O)C2=C(O)c3ccccc3S(=O)(=O)N2C)s1` [meloxicam, 4-hydroxy-2-methyl-N-(5-methyl-2-thiazolyl)-2H-1,2-benzothiazine-3-carboxamide-1,1-dioxide] as the compound, how does the Mortality rate (MEL-CAST (bulls)) read?
Its Mortality rate is 0 no. (%).

And the Pen death (MEL-CAST (bulls))?
Its Pen death is 0 no. (%).

What about the “Removal for neurological symptoms” value (MEL-CAST (bulls)) of the same compound?
Its value is 1 (1%) no. (%).

And the Removal for lameness (MEL-CAST (bulls), listed as MEL)?
Its Removal for lameness is 2 no. (%) and 2 (3%) no. (%).

And the Study removal (MEL-CAST (bulls, 71 enrolled))?
Its Study removal is 4 (6%) no. (%).

What about the peak overall morbidity (MEL-CAST group, peak on day 6) of the same compound?
Its peak overall morbidity is 4%.

What about the Mortality rate (MEL-STR (steers)) of the same compound?
The Mortality rate was 0 no. (%).

And the Pen death (MEL-STR (steers))?
The Pen death was 0 no. (%).

And the “Removal for chronic coccidiosis” value (MEL-STR (steers))?
Its value is 0 no. (%).

And the “Removal for neurological symptoms” value (MEL-STR (steers))?
Its value is 0 no. (%).

What about the Removal for lameness (MEL-STR (steers), listed as MEL) of the same compound?
Its Removal for lameness is 1 no. (%) and 1 (2%) no. (%).

And the Study removal (MEL-STR (steers, 58 enrolled))?
The Study removal was 1 (2%) no. (%).

What about the “peak overall morbidity rate” value (MEL-STR group, peak on day 12) of the same compound?
The value was 7%.

What about the “reduction in likelihood of developing BRD vs placebo-treated castrated bulls” value (bull calves receiving meloxicam prior to castration) of the same compound?
The value was “about 50 % less likely”.

What about the “First BRD relapse rate” value (bulls (castrated), 1 mg/kg PO) of the same compound?
Its value is 35.7%.

What about the First re-pull rate (bulls (castrated), 1 mg/kg PO) of the same compound?
The First re-pull rate was 52.6%.

What about the “Pulls (pen-adjusted first pull rate)” value (bulls castrated 24 h after 1 mg/kg PO (MEL-CAST)) of the same compound?
Its value is 25.8^y %.

And the “Pulls (pen-adjusted first pull rate)” value (bulls castrated 24 h after 1 mg/kg PO (MEL-CAST), listed as MEL)?
Its value is 25.83%.

What about the BRD morbidity [1] of the same compound?
Its BRD morbidity is 17.2^y %.

And the Overall morbidity [1]?
The Overall morbidity was 21.1%.

What about the “Pulls (pen-adjusted first pull rate)” value (steers (MEL-STR), 1 mg/kg PO) of the same compound?
Its value is 17.1%.

And the BRD morbidity (steers, 1 mg/kg PO)?
The BRD morbidity was 12.6%.

And the “First BRD relapse rate” value (steers, 1 mg/kg PO)?
The value was 50.0%.

And the First re-pull rate (steers, 1 mg/kg PO)?
Its First re-pull rate is 69.9%.

What about the Overall morbidity (steers, 1 mg/kg PO) of the same compound?
Its Overall morbidity is 14.4%.

What about the “effect on incidence of BRD in steers” value (steers, not castrated, vs untreated control steers) of the same compound?
The value was “did not appear to decrease the incidence of BRD”.

Reference: patent publication US8791105B2, “Methods for alleviating chronic pain and improving performance of cattle undergoing dehorning or castration” (Kansas State University Research Foundation, priority 2010, dated 2014)
